Consider 17 compounds from patent US8367716B2 (priority 2003, dated 2013).

In brackets after ≈: the same amount, converted by molar mass.

In the first test the test system is S. aureus. Kind of test: Biofilm formation on polystyrene microtitre plates (crystal violet, O.D.570). As to conditions: DK825, 200 μM. The class given is cell-based, Staphylococcus aureus. The procedure: Effect of c-di-GMP on S. aureus biofilm formation. S. aureus strains were subcultured from glycerol stocks onto blood agar plates and incubated at 37° C. for 18 h. A single colony was inoculated into 5 ml TSB broth with a sterilized loop and incubated at 37° C. for 18 h with shaking at 250 rpm and until the O.D.660 reached 3.0 as measured spectrophotometrically using a spectrophotometer (SpectraMAX 250, Molecular Devices). Following incubation, the culture was diluted 1:250 with fresh TSB and a 200 μl of the diluted culture was transferred into wells of a flat-bottom polystyrene microtitre plate (Evergreen Scientific). […] In these biofilm experiments, similar volumes of 0.9% NaCl was added to a set of different wells representing the “untreated” control samples. The microtitre plates were then incubated statically at 37° C. for 24 h or 48 h. Following incubation, the supernatant was carefully discarded and the wells washed twice with 260 μl PBS. The plate was then kept for drying on a paper towel for 30 min after which 260 μl 0.1% crystal violet was added to each well and the plates incubated at room temperature for 30 min. The crystal violet was discarded and plate washed gently with water, the wells allowed to dry for 30 min then 260 μl DMSO was added to each well and gently agitated for 1 h and the O.D.570 measured by using a spectrophotometer (SpectraMAX 250, Molecular Devices). The results of these biofilm assays were based on data obtained from at least three independent colonies tested in duplicate.
Take `Nc1nc2c(ncn2[C@@H]2O[C@H](COP(=O)(O)O)[C@@H](O)[C@H]2O)c(=O)[nH]1` [5′-GMP, guanosine 5′-monophosphate, reference compound]: the “effect on biofilm formation” value is “no effect”.

The test is the same for the next values; noted with them: DK825, 200 μM, 24 h.
Consider `Nc1nc2c(ncn2[C@@H]2O[C@@H]3COP(=O)(O)O[C@H]3[C@H]2O)c(=O)[nH]1` [cGMP, guanosine 3′, 5′-cyclic monophosphate, reference compound], for which the “reduction of biofilm formation” value is recorded as around 40%.

A further test has as its system S. aureus strain DK825. Kind of test: microbe, parasite or virus in culture. The class given is cell-based, Staphylococcus aureus. As to conditions: S. aureus DK825 (MRSA). The procedure:
Antibiotic susceptibility testing. Susceptibility tests were performed in Sensititre microtitre plates according to the manufacturer's instructions (Microbiology Systems).
Penicillin had an MIC above 8 µg/mL.

The same test, now with this note: Staphylococcus aureus, MRSA.
`CC1(C)S[C@@H]2[C@H](NC(=O)[C@H](N)c3ccccc3)C(=O)N2[C@H]1C(=O)O` [Ampicillin] returned an MIC of 4 µg/mL (≈ 11.4 µM).
The same measure, in the same setting: next, `O=C(O)c1cn(C2CC2)c2cc(N3CCNCC3)c(F)cc2c1=O` [Ciprofloxacin]: above 2 µg/mL.
For `CC[C@H]1OC(=O)[C@H](C)[C@@H](O[C@H]2C[C@@](C)(OC)[C@@H](O)[C@H](C)O2)[C@H](C)[C@@H](O[C@@H]2O[C@H](C)C[C@H](N(C)C)[C@H]2O)[C@](C)(OC)C[C@@H](C)C(=O)[C@H](C)[C@@H](O)[C@]1(C)O` [Clarithromycin], the MIC is above 4 µg/mL.
On the same count and under the same terms, the result for `CCC[C@@H]1C[C@@H](C(=O)N[C@@H]([C@H]2O[C@H](SC)[C@H](O)[C@@H](O)[C@H]2O)[C@H](C)Cl)N(C)C1` [Clindamycin] reads above 2 µg/mL.
Compound `CC[C@H]1OC(=O)[C@H](C)[C@@H](O[C@H]2C[C@@](C)(OC)[C@@H](O)[C@H](C)O2)[C@H](C)[C@@H](O[C@@H]2O[C@H](C)C[C@H](N(C)C)[C@H]2O)[C@](C)(O)C[C@@H](C)C(=O)[C@H](C)[C@@H](O)[C@]1(C)O` [Erythromycin] had an MIC above 4 µg/mL.
On the same count and under the same terms, next, `C[C@H]1COc2c(N3CCN(C)CC3)c(F)cc3c(=O)c(C(=O)O)cn1c23` [Levofloxacin]: 2 µg/mL (≈ 5.53 µM); `COc1c(N2C[C@@H]3CCCN[C@@H]3C2)c(F)cc2c(=O)c(C(=O)O)cn(C3CC3)c12` [Moxifloxacin]: 2 µg/mL (≈ 4.98 µM); `Cc1onc(-c2ccccc2)c1C(=O)N[C@@H]1C(=O)N2[C@@H]1SC(C)(C)[C@@H]2C(=O)O` [Oxacillin]: above 2 µg/mL.
On the same count and under the same terms, next, `CO[C@H]1/C=C/O[C@@]2(C)Oc3c(C)c(O)c4c(O)c(c(/C=N/N5CCN(C)CC5)c(O)c4c3C2=O)NC(=O)/C(C)=C\C=C\[C@H](C)[C@H](O)[C@@H](C)[C@@H](O)[C@@H](C)[C@H](OC(C)=O)[C@@H]1C` [Rifampin]: above 2 µg/mL; `CN[C@H](CC(C)C)C(=O)N[C@H]1C(=O)N[C@@H](CC(N)=O)C(=O)N[C@H]2C(=O)N[C@H]3C(=O)N[C@H](C(=O)N[C@H](C(=O)O)c4cc(O)cc(O)c4-c4cc3ccc4O)[C@H](O)c3ccc(c(Cl)c3)Oc3cc2cc(c3O[C@@H]2O[C@H](CO)[C@@H](O)[C@H](O)[C@H]2O[C@H]2C[C@](C)(N)[C@H](O)[C@H](C)O2)Oc2ccc(cc2Cl)[C@H]1O` [Vancomycin]: below 0.5 µg/mL.

A further test deals with S. aureus strain 15981.
Assay: not given
As to conditions: S. aureus 15981, hyperbiofilm human clinical strain; cited from earlier work.
Take `CC1(C)S[C@@H]2[C@H](NC(=O)[C@H](N)c3ccc(O)cc3)C(=O)N2[C@H]1C(=O)O` [AMX]: the antibiotic susceptibility entry is “susceptible”.
On to `C[C@H]1c2cccc(O)c2C(O)=C2C(=O)[C@]3(O)C(O)=C(C(N)=O)C(=O)[C@@H](N(C)C)[C@@H]3[C@@H](O)[C@@H]21` [DOX], for which the antibiotic susceptibility entry is given as “susceptible”.
Consider `CC[C@H]1OC(=O)[C@H](C)[C@@H](O[C@H]2C[C@@](C)(OC)[C@@H](O)[C@H](C)O2)[C@H](C)[C@@H](O[C@@H]2O[C@H](C)C[C@H](N(C)C)[C@H]2O)[C@](C)(O)C[C@@H](C)C(=O)[C@H](C)[C@@H](O)[C@]1(C)O` [Erythromycin], for which the antibiotic susceptibility result was “susceptible”.
As for `C[C@@H]1O[C@@H]1P(=O)(O)O` [FOF], the antibiotic susceptibility entry is “susceptible”.
Turning to `COc1cccc(OC)c1C(=O)N[C@@H]1C(=O)N2[C@@H]1SC(C)(C)[C@@H]2C(=O)O` [MET], the antibiotic susceptibility result is “susceptible”.
In the case of `CN[C@H](CC(C)C)C(=O)N[C@H]1C(=O)N[C@@H](CC(N)=O)C(=O)N[C@H]2C(=O)N[C@H]3C(=O)N[C@H](C(=O)N[C@H](C(=O)O)c4cc(O)cc(O)c4-c4cc3ccc4O)[C@H](O)c3ccc(c(Cl)c3)Oc3cc2cc(c3O[C@@H]2O[C@H](CO)[C@@H](O)[C@H](O)[C@H]2O[C@H]2C[C@](C)(N)[C@H](O)[C@H](C)O2)Oc2ccc(cc2Cl)[C@H]1O` [Vancomycin], the antibiotic susceptibility result is “susceptible”.
